Consider two molecules from US12371427B2, “Polymorphic forms of a substituted-quinoxaline-type bridged-piperidine compound” (Purdue Pharma L.P., priority 2019, dated 2025).

Where two headings read alike, the source gives them in different places.

What all share (type): physicochemical
A short description of data set [1]: Solubility study, visually estimated by dosing solvent aliquots into 10.0 mg API. The settings on record: thermodynamic from solid. On the procedure: Solubility was assessed in an array of diverse solvents in order to facilitate the selection of solvent systems and corresponding dosing strategies for the subsequent crystal-form screening experiments. The solubility of Form A of Formula (I) was visually estimated in 12 solvents at RT, and if applicable, at 40° C. by dosing small aliquots of the solvent into a fixed amount of the API (10.0 mg) until the dissolution point or a maximum volume of 1.8 mL was reached.

A short description of data set [2]: Relative stability (ripening) study of crystal forms at various water activity levels. On the procedure: Relative stability studies were conducted at 25° C. to determine thermodynamic crystal stability at various water activity levels ranging from aw=0 to aw=0.94. Both non-solvated forms (Forms A and D) and hydrate forms (Form C and E) were ripened during the study.
Saturated suspensions of the Formula (I) were prepared by stirring excess API in the specified solvent system. The suspension was stirred overnight at 25° C. A clarifying filtration was performed and the filtrate was added to a 2 mL vial containing seeds or small quantities of the relevant forms. The resulting suspensions were stirred at 25° C. for seven days. The solids were isolated, air-dried for 45 minutes, and analyzed by FTIR.

The nature of data set [3]: Particle size distribution after jet milling, laser diffraction dry particle size analyzer. The settings on record: crystalline Form A after fluidized bed opposed jet milling. On the procedure: 21.98 kg of crystalline Form A Formula (I) was processed in a fluidized bed opposed jet mill (Model number 100AFG; Hosokawa Micron) at a feed rate of 8 kg/h under nitrogen at 0.6 MPa and 15,000 rpm. After milling, 20.9 kg ([…]) was collected and analyzed by laser diffraction dry particle size analyzer (HELOS&RODOS).

For orientation: solubility means how much of the substance goes into solution per volume. As to `O=C(O)c1nc2ccccc2n([C@H]2C[C@H]3CCC[C@@H](C2)N3C2CC3CCCC(C3)C2)c1=O` (stereo partly shown) [Form A], the solubility in data set [1] (organic solvent or mixture, DCM, 40° C., read-out: Solubility at 40° C.) is under 6000 µg/mL; in data set [1] (organic solvent or mixture, DCM, RT, read-out: Solubility at RT), under 6000 µg/mL; in data set [1] (organic solvent or mixture, EtOAc, 40° C., read-out: Solubility at 40° C.), under 6000 µg/mL; in data set [1] (organic solvent or mixture, EtOAc, RT, read-out: Solubility at RT) it was under 6000 µg/mL; in data set [1] (organic solvent or mixture, IPA, 40° C., read-out: Solubility at 40° C.), under 6000 µg/mL; in data set [1] (organic solvent or mixture, IPA, RT, read-out: Solubility at RT), under 6000 µg/mL. Besides, the solubility in data set [1] (organic solvent or mixture, IPA:water (9:1), 40° C., read-out: Solubility at 40° C.) is under 6000 µg/mL; in data set [1] (organic solvent or mixture, IPA:water (9:1), RT, read-out: Solubility at RT), under 6000 µg/mL; in data set [1] (organic solvent or mixture, IPE, 40° C., read-out: Solubility at 40° C.), under 6000 µg/mL; in data set [1] (organic solvent or mixture, IPE, RT, read-out: Solubility at RT), under 6000 µg/mL; in data set [1] (organic solvent or mixture, MTBE, 40° C., read-out: Solubility at 40° C.), under 6000 µg/mL; in data set [1] (organic solvent or mixture, MTBE, RT, read-out: Solubility at RT), under 6000 µg/mL. Moreover, the solubility in data set [1] (organic solvent or mixture, MeCN, 40° C., read-out: Solubility at 40° C.) is under 6000 µg/mL; in data set [1] (organic solvent or mixture, MeCN, RT, read-out: Solubility at RT), under 6000 µg/mL; in data set [1] (organic solvent or mixture, MeOH, 40° C., read-out: Solubility at 40° C.) it was under 7000 µg/mL; in data set [1] (organic solvent or mixture, MeOH, RT, read-out: Solubility at RT) it was under 7000 µg/mL; in data set [1] (organic solvent or mixture, THF, 40° C., read-out: Solubility at 40° C.) it was under 6000 µg/mL; in data set [1] (organic solvent or mixture, THF, RT, read-out: Solubility at RT), under 6000 µg/mL. Also, the solubility in data set [1] (organic solvent or mixture, Toluene, 40° C., read-out: Solubility at 40° C.) is under 7000 µg/mL; in data set [1] (organic solvent or mixture, Toluene, RT, read-out: Solubility at RT) it was under 7000 µg/mL; in data set [1] (Water, 40° C., read-out: Solubility at 40° C.), under 6000 µg/mL; in data set [1] (Water, RT, read-out: Solubility at RT), under 6000 µg/mL. Also, the “Crystal form remaining after the ripening study” value in data set [2] (all solvent systems, 25° C., seven days, FTIR) is recorded as “the only crystal form remaining”. The “Relative stability among crystalline forms of Formula (I)” value in data set [2] (confirmed in ripening studies) is “the most stable crystalline form”.
Consider `O=C(O)c1nc2ccccc2n([C@H]2C[C@H]3CCC[C@@H](C2)N3C2CC3CCCC(C3)C2)c1=O` (stereo partly shown) [Formula (I)], for which the solubility in data set [1] (all solvents of Table 3 other than DMSO, organic solvent or mixture, read-out: Solubility (low) in all other solvents evaluated) is at most 7000 µg/mL. Moreover, the solubility in data set [1] (organic solvent or mixture, DMSO, RT, read-out: Solubility at RT) was 21000 to 52000 µg/mL. For the same molecule, in data set [3], the D10 was 0.63 μm, the D30 is reported as 1.36 μm, the D50 was 2.29 μm and the D70 was found to be 3.57 μm. For the same molecule, the D90 in data set [3] is given as 5.8 μm.
